According to ChEMBL document CHEMBL2413072, “Synthesis and in vitro anticancer studies of novel C-2 arylidene congeners of lantadenes” (2013):
Activity calls are given as the source filed them. The calls are words filed in the database; no cut-off is given here.

Columns and labels:
Type in all cases: functional
[1] = system: MCF7; experiment: Growth inhibition of human MCF7 cells assessed as growth inhibition at 10 uM by sulforhodamine B assay; details: read-out: GI
[2] = system: DU-145; experiment: Growth inhibition of human DU145 cells assessed as growth inhibition at 10 uM by sulforhodamine B assay; details: read-out: GI
[3] = system: UO-31; experiment: Growth inhibition of human UO31 cells assessed as growth inhibition at 10 uM by sulforhodamine B assay
[4] = system: TK-10; experiment: Growth inhibition of human TK10 cells assessed as growth inhibition at 10 uM by sulforhodamine B assay; details: read-out: GI
[5] = system: SN12C; experiment: Growth inhibition of human SN12C cells assessed as growth inhibition at 10 uM by sulforhodamine B assay; details: read-out: GI
[6] = system: CAKI-1; experiment: Growth inhibition of human CAKI-1 cells assessed as growth inhibition at 10 uM by sulforhodamine B assay; details: read-out: GI
[7] = system: A498; experiment: Growth inhibition of human A498 cells assessed as growth inhibition at 10 uM by sulforhodamine B assay
[8] = system: 786-0; experiment: Growth inhibition of human 786-0 cells assessed as growth inhibition at 10 uM by sulforhodamine B assay
[9] = system: SK-OV-3; experiment: Growth inhibition of human SKOV3 cells assessed as growth inhibition at 10 uM by sulforhodamine B assay; details: read-out: GI
[10] = system: MOLT-4; experiment: Growth inhibition of human MOLT4 cells assessed as cell growth at 10 uM by sulforhodamine B assay; details: read-out: Activity
[11] = system: HL-60(TB); experiment: Growth inhibition of human HL-60(TB) cells assessed as cell growth at 10 uM by sulforhodamine B assay; details: read-out: Activity
[12] = system: IGROV-1; experiment: Growth inhibition of human IGROV1 cells assessed as growth inhibition at 10 uM by sulforhodamine B assay; details: read-out: GI
[13] = system: UACC-257; experiment: Growth inhibition of human UACC257 cells assessed as growth inhibition at 10 uM by sulforhodamine B assay; details: read-out: GI
[14] = system: SK-MEL-28; experiment: Growth inhibition of human SK-MEL-28 cells assessed as growth inhibition at 10 uM by sulforhodamine B assay; details: read-out: GI
[15] = system: MDA-MB-435; experiment: Growth inhibition of human MDA-MB-435 cells assessed as growth inhibition at 10 uM by sulforhodamine B assay; details: read-out: GI
[16] = system: M14; experiment: Growth inhibition of human M14 cells assessed as growth inhibition at 10 uM by sulforhodamine B assay; details: read-out: GI
[17] = system: SF-539; experiment: Growth inhibition of human SF539 cells assessed as growth inhibition at 10 uM by sulforhodamine B assay; details: read-out: GI
[18] = system: SF-268; experiment: Growth inhibition of human SF268 cells assessed as growth inhibition at 10 uM by sulforhodamine B assay; details: read-out: GI
[19] = system: SW-620; experiment: Growth inhibition of human SW620 cells assessed as growth inhibition at 10 uM by sulforhodamine B assay; details: read-out: GI
[20] = system: KM12; experiment: Growth inhibition of human KM12 cells assessed as growth inhibition at 10 uM by sulforhodamine B assay; details: read-out: GI
[21] = system: NCI-H460; experiment: Growth inhibition of human NCI-H460 cells assessed as growth inhibition at 10 uM by sulforhodamine B assay; details: read-out: GI
[22] = system: NCI-H322M; experiment: Growth inhibition of human NCI-H322M cells assessed as growth inhibition at 10 uM by sulforhodamine B assay
[23] = system: NCI-H226; experiment: Growth inhibition of human NCI-H226 cells assessed as growth inhibition at 10 uM by sulforhodamine B assay; details: read-out: GI
[24] = system: HOP-92; experiment: Growth inhibition of human HOP92 cells assessed as growth inhibition at 10 uM by sulforhodamine B assay
[25] = system: HOP-62; experiment: Growth inhibition of human HOP62 cells assessed as growth inhibition at 10 uM by sulforhodamine B assay; details: read-out: GI
[26] = Growth inhibition of human EKVX cells assessed as growth inhibition at 10 uM by sulforhodamine B assay; details: read-out: GI
[27] = system: MOLT-4; experiment: Growth inhibition of human MOLT4 cells assessed as growth inhibition at 10 uM by sulforhodamine B assay; details: read-out: GI
[28] = system: T47D; experiment: Growth inhibition of human T47D cells assessed as cell growth at 10 uM by sulforhodamine B assay; details: read-out: Activity
[29] = system: BT-549; experiment: Growth inhibition of human BT549 cells assessed as cell growth at 10 uM by sulforhodamine B assay; details: read-out: Activity
[30] = system: MDA-MB-231; experiment: Growth inhibition of human MDA-MB-231 cells assessed as cell growth at 10 uM by sulforhodamine B assay; details: read-out: Activity
[31] = system: ACHN; experiment: Growth inhibition of human ACHN cells assessed as cell growth at 10 uM by sulforhodamine B assay; details: read-out: Activity
[32] = system: SK-OV-3; experiment: Growth inhibition of human SKOV3 cells assessed as cell growth at 10 uM by sulforhodamine B assay; details: read-out: Activity
[33] = system: OVCAR-5; experiment: Growth inhibition of human OVCAR5 cells assessed as cell growth at 10 uM by sulforhodamine B assay; details: read-out: Activity
[34] = system: IGROV-1; experiment: Growth inhibition of human IGROV1 cells assessed as cell growth at 10 uM by sulforhodamine B assay; details: read-out: Activity
[35] = system: SK-MEL-5; experiment: Growth inhibition of human SK-MEL-5 cells assessed as cell growth at 10 uM by sulforhodamine B assay; details: read-out: Activity
[36] = system: SK-MEL-28; experiment: Growth inhibition of human SK-MEL-28 cells assessed as cell growth at 10 uM by sulforhodamine B assay; details: read-out: Activity
[37] = system: SK-MEL-2; experiment: Growth inhibition of human SK-MEL-2 cells assessed as cell growth at 10 uM by sulforhodamine B assay; details: read-out: Activity
[38] = system: M14; experiment: Growth inhibition of human M14 cells assessed as cell growth at 10 uM by sulforhodamine B assay; details: read-out: Activity
[39] = system: MDA-MB-435; experiment: Growth inhibition of human MDA-MB-435 cells assessed as cell growth at 10 uM by sulforhodamine B assay; details: read-out: Activity
[40] = system: Malme-3M; experiment: Growth inhibition of human MALME-3M cells assessed as cell growth at 10 uM by sulforhodamine B assay; details: read-out: Activity
[41] = system: U-251; experiment: Growth inhibition of human U251 cells assessed as cell growth at 10 uM by sulforhodamine B assay; details: read-out: Activity
[42] = system: SNB-19; experiment: Growth inhibition of human SNB19 cells assessed as cell growth at 10 uM by sulforhodamine B assay; details: read-out: Activity
[43] = system: SW-620; experiment: Growth inhibition of human SW620 cells assessed as cell growth at 10 uM by sulforhodamine B assay; details: read-out: Activity
[44] = system: KM12; experiment: Growth inhibition of human KM12 cells assessed as cell growth at 10 uM by sulforhodamine B assay; details: read-out: Activity
[45] = system: HCT-15; experiment: Growth inhibition of human HCT15 cells assessed as cell growth at 10 uM by sulforhodamine B assay; details: read-out: Activity
[46] = system: COLO 205; experiment: Growth inhibition of human COLO205 cells assessed as cell growth at 10 uM by sulforhodamine B assay; details: read-out: Activity
[47] = system: NCI-H226; experiment: Growth inhibition of human NCI-H226 cells assessed as cell growth at 10 uM by sulforhodamine B assay; details: read-out: Activity
[48] = system: HOP-92; experiment: Growth inhibition of human HOP92 cells assessed as cell growth at 10 uM by sulforhodamine B assay; details: read-out: Activity
[49] = system: RPMI-8226; experiment: Growth inhibition of human RPMI8226 cells assessed as cell growth at 10 uM by sulforhodamine B assay; details: read-out: Activity

## C/C=C(/C)C(=O)O[C@@H]1CC(C)(C)C[C@H]2C3=CC[C@@H]4[C@@]5(C)CC[C@H](O)C(C)(C)[C@@H]5CC[C@@]4(C)[C@]3(C)CC[C@@]12C(=O)O [Reduced Lantadene A]
[1]
  inhibition of growth at 10 µM: 39%
[2]
  inhibition of growth at 10 µM: 25.1%
[3]
  growth inhibition (GI): Active
[4]
  inhibition of growth at 10 µM: 33.2%
[5]
  inhibition of growth at 10 µM: 94.2%
[6]
  inhibition of growth at 10 µM: 70.5%
[7]
  growth inhibition (GI): Active
[8]
  growth inhibition (GI): Active
[9]
  inhibition of growth at 10 µM: 58.2%
[10]
  growth at 10 µM: 41.4%
[11]
  growth at 10 µM: -50.8%
[12]
  inhibition of growth at 10 µM: 64.9%
[13]
  inhibition of growth at 10 µM: 39.4%
[14]
  inhibition of growth at 10 µM: 66.3%
[15]
  inhibition of growth at 10 µM: 35.1%
[16]
  inhibition of growth at 10 µM: 71.3%
[17]
  inhibition of growth at 10 µM: 57%
[18]
  inhibition of growth at 10 µM: 74.1%
[19]
  inhibition of growth at 10 µM: 60.9%
[20]
  inhibition of growth at 10 µM: 78.3%
[21]
  inhibition of growth at 10 µM: 64.9%
[22]
  growth inhibition (GI): Active
[23]
  inhibition of growth at 10 µM: 57.9%
[24]
  growth inhibition (GI): Active
[25]
  inhibition of growth at 10 µM: 75.7%
[26]
  inhibition of growth at 10 µM: 63.5%
[27]
  inhibition of growth at 10 µM: 58.6%
[28]
  growth at 10 µM: 75.7%
[29]
  growth at 10 µM: 26.1%
[30]
  growth at 10 µM: 22.2%
[31]
  growth at 10 µM: 8.12%
[32]
  growth at 10 µM: 41.8%
[33]
  growth at 10 µM: 64%
[34]
  growth at 10 µM: 35.1%
[35]
  growth at 10 µM: 53.2%
[36]
  growth at 10 µM: 33.7%
[37]
  growth at 10 µM: 54.1%
[38]
  growth at 10 µM: 28.7%
[39]
  growth at 10 µM: 64.9%
[40]
  growth at 10 µM: 35.2%
[41]
  growth at 10 µM: 38.2%
[42]
  growth at 10 µM: -53%
[43]
  growth at 10 µM: 39.1%
[44]
  growth at 10 µM: 21.7%
[45]
  growth at 10 µM: 21.2%
[46]
  growth at 10 µM: 28.2%
[47]
  growth at 10 µM: 42.1%
[48]
  growth at 10 µM: -54.2%
[49]
  growth at 10 µM: 21.1%
